Measured values published in article PMC11595719, “Design of Ctenophore Ca^2+-Regulated Photoprotein Berovin Capable of Being Converted into Active Protein Under Physiological Conditions: Computational and Experimental Approaches” (Life, 2024).

Legend:
Assay in all cases: Trp fluorescence quenching at […] nm
Assay type in all cases: binding
[1] = molecular target: T1, berovin (apo-berovin, BAwt) (Beroe abyssicola, UniProt H8ZZK1, K90A/N107S)
T1 construct: gene BA2; monomeric

[2] = molecular target: T2, berovin (apo-berovin, BAwt) (Beroe abyssicola, UniProt H8ZZK1)
T2 construct: gene BA2; monomeric
T2 sequence (H8ZZK1 1-208): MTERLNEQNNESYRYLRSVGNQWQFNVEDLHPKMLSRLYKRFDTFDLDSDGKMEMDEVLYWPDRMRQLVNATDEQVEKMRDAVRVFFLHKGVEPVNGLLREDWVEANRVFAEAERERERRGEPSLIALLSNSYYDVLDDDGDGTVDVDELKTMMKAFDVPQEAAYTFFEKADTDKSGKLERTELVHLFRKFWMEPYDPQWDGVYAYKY

[3] = molecular target: T3, berovin (apo-berovin, BAwt) (Beroe abyssicola, UniProt H8ZZK1, K90M)
T3 construct: gene BA2; monomeric
T3 sequence (H8ZZK1 entry or part of it K90M): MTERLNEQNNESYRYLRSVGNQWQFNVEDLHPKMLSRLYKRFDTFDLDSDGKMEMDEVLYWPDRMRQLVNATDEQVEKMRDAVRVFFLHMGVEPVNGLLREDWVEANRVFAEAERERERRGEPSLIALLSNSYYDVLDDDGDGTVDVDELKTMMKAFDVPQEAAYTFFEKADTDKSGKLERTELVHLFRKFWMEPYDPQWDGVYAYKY

berovin (apo-berovin) = molecular target: T4, berovin (apo-berovin) (Beroe abyssicola, UniProt H8ZZK1, K90M/N107S/W103F)
T4 construct: gene BA2; monomeric
T4 sequence (H8ZZK1 entry or part of it K90M/W103F/N107S): as the sequence (H8ZZK1 entry or part of it K90M) above, with W103F, N107S counted along it

T1 sequence (H8ZZK1 entry or part of it K90A/N107S): as the sequence (H8ZZK1 entry or part of it K90M) above, with M90A, N107S counted along it

Kd [1]: 1.3 ± 0.15 µM
Kd [2]: 4.72 ± 0.36 µM
Kd [3]: 2.61 ± 0.28 µM
Kd (berovin (apo-berovin)): 6.62 ± 0.54 µM
Structure (SMILES): Oc1ccc(Cc2nc3c(Cc4ccccc4)nc(-c4ccc(O)cc4)cn3c2O)cc1 [coelenterazine]
